IC50 data for 89 molecules are collected here from PubChem BioAssay AID489006 (Sanford-Burnham Center for Chemical Genomics, 2010).

The source made the active and inactive calls. How the calls were made is not given here.

This assay has as its system Jurkat NF-kB reporter, luminescence. Kind of assay: NF-kB reporter inhibition in Jurkat cells, dose response, selectivity assay for B-cell receptor NF-kB inhibitor project, cell-based, luminescence (AID 489006).
For `COc1ccc(NS(=O)(=O)c2cc(NC(=O)c3cc(=O)c4ccccc4o3)ccc2OC)cc1`, the IC50 is > 80 µM (inactive).

For `COc1ccc(C(C(=O)NC2CCCCC2)N(C(=O)CCl)c2ccc(OC)cc2)cc1` (centres undefined), the IC50 was 0.65 µM.

As to `CCn1c(=S)[nH]c2cc(S(=O)(=O)N3CCCCC3)ccc21`, the IC50 was > 80 µM (inactive).

As to `O=C(Nc1ccccc1C(=O)Nc1nnc(C(F)(F)F)s1)c1ccccc1`, the IC50 is > 80 µM (inactive).

With `O=C(CCCN1C(=O)/C(=C/c2ccccc2Cl)SC1=S)Nc1ccccn1`, the IC50 was 9.52 µM.

`O=C1CCCc2c1[nH]c1ccc(CN3CCCCC3)cc21`: the IC50 was > 80 µM (inactive).

With `Cc1ccc(-c2nn3c(C)nnc3c3ccccc23)cc1S(=O)(=O)N1CCN(CCO)CC1`, the IC50 is 43.4 µM (inactive).

For the molecule `COc1ccc(C(=O)n2nc(-c3ccc(Cl)cc3)nc2N)cc1OC`, the IC50 was 2.9 µM.

With `CCN1C(=O)Nc2cccc3cccc1c23`, the IC50 is 36.2 µM (inactive).

Turning to `CC(=O)Nc1ccc(Nc2nc(-c3sc(NC(C)=O)nc3C)cs2)cc1`, the 50% inhibitory concentration (IC50) is 8.63 µM.

On to `COc1ccc(-c2ccc(OC)c([C@H]3[C@H]4C=CC[C@@H](C)[C@@H]4C(=O)N3Cc3ccccc3)c2)cc1`, for which the IC50 is 35.7 µM (inactive).

As for `CCn1c(=O)cc(OCC(=O)NCc2ccc(C)o2)c2ccccc21`, the IC50 was > 80 µM (inactive).

For `CCC(C)(C)c1ccc(OCCCC[n+]2ccccc2)c(C(C)(C)CC)c1`, the IC50 is 5.79 µM.

In the case of `Cc1cc2ccccn2c1C(=O)c1ccc(NN)c([N+](=O)[O-])c1`, the IC50 is > 80 µM (inactive).

On to `CC(=O)c1cn(CCOc2cc(C)ccc2C)c2ccccc12`, for which the IC50 was > 80 µM (inactive).

Consider `NC(=O)C1CCN(C(=O)COc2ccc3ccccc3c2Br)CC1`, for which the IC50 was > 80 µM (inactive).

As to `Cc1ccc(C(=O)CSc2nnc(COc3ccccc3)o2)cc1`, the IC50 is > 80 µM (inactive).

On to `Cc1ccccc1-c1cc(C(=O)Nc2sc(C(=O)OC(C)C)c(C)c2C#N)c2ccccc2n1`, for which the IC50 was > 80 µM (inactive).

`CCOC(=O)CNC(=O)CSc1nnc(NC(=O)c2ccc(C)cc2)s1`: the IC50 was 5.88 µM.

With `CCOc1ccc(-n2c(-c3ccccc3)c[n+]3c2CCCCC3)cc1`, the IC50 was > 80 µM (inactive).

With `C=C(C)[C@@H]1CCC2(C(=O)O)CC[C@]3(C)[C@H](CC[C@@H]4[C@@]5(C)CCC(=O)C(C)(C)[C@@H]5CC[C@]43C)[C@@H]12` (some centres undefined), the IC50 was > 80 µM (inactive).

For `COc1ccc(C(=O)Nc2ccc(OC)c([N+](=O)[O-])c2)cc1Br`, the IC50 is > 80 µM (inactive).

Consider `O=C(CSCCO)Nc1ccc(C23CC4CC(CC(C4)C2)C3)cc1`, for which the IC50 is > 80 µM (inactive).

With `CCOC(=O)N1CCN(c2ncnc3c2[nH]c2ccc(OC)cc23)CC1`, the IC50 was 61 µM (inactive).

For the molecule `CCc1ccc2[nH]c3nc(N/N=C/c4cccc(O)c4)nnc3c2c1`, the IC50 is > 80 µM (inactive).

`CC(C)OCCCNC(=O)c1c(N)n(/N=C/c2ccccn2)c2nc3ccccc3nc12`: the IC50 was 40.2 µM (inactive).

On to `Cc1[nH]c2ccccc2c1/C=N/Nc1nc(Nc2ccccc2)nc(N2CCOCC2)n1`, for which the IC50 was 35.2 µM (inactive).

As for `Nc1ccc(-c2cc3ccccc3oc2=O)cc1`, the IC50 is 0.24 µM.

`N=c1ccn2c(n1)OC1C(O)C(CO)OC12` (centres undefined): the IC50 was 2.21 µM.

Consider `CN1C(=O)CC(c2ccco2)Sc2ccccc21` (centres undefined), for which the IC50 is > 80 µM (inactive).

In the case of `COc1ccc(NC(=S)NCc2ccccc2)c(OC)c1`, the IC50 was > 80 µM (inactive).

Turning to `CCOc1ccc(S(=O)(=O)NCc2ccncc2)cc1NC(=O)c1ccccc1`, the IC50 is > 80 µM (inactive).

As to `CCCNC(=O)CSCc1nc(-c2ccc(SC)cc2)oc1C`, the IC50 was > 80 µM (inactive).

As for `Cc1ccc(S(=O)(=O)N2CCCCC2CCNC(=O)C(=O)NCc2ccncc2)cc1` (centres undefined), the IC50 is > 80 µM (inactive).

With `CC1(C)CC2CC(C)(CN2S(=O)(=O)c2ccc(C(=O)Nc3ccc(S(=O)(=O)N4CCOCC4)cc3)cc2)C1` (centres undefined), the IC50 was > 80 µM (inactive).

In the case of `O=C(CCl)Nc1ccccc1Sc1ccccc1`, the IC50 was 14.1 µM.

Consider `OCCN1CCN(C(=S)c2ccc(-c3ccccc3)cc2)CC1`, for which the IC50 was 7.07 µM.

As for `CCOCCCNc1nc2c(C)cccn2c(=O)c1/C=C1\SC(=S)N(C(C)CC)C1=O` (centres undefined), the IC50 is > 80 µM (inactive).

Take `CCOc1ccc(/C=C2\SC(=S)N(CCC(=O)Nc3cccc(C(=O)O)c3)C2=O)cc1`: the IC50 was > 80 µM (inactive).

With `CNC(=O)c1cc(Nc2nnc(-c3ccc(O)cc3)c3ccccc23)ccc1OC`, the IC50 was > 80 µM (inactive).

As to `C(=N\Nc1nc(Nc2ccccc2)nc(N2CCOCC2)n1)/c1c[nH]c2ccccc12`, the IC50 was 37.7 µM (inactive).

Consider `CCOc1ccc(-c2noc(CCC(=O)O)n2)cc1`, for which the IC50 is 0.7 µM.

In the case of `COc1ccc(-c2nsc(SCC(=O)Nc3cc(C)on3)n2)cc1`, the IC50 is > 80 µM (inactive).

On to `Cc1cc(OCC(=O)N2CCC(C(N)=O)CC2)c2c3c(c(=O)oc2c1)CCCC3`, for which the IC50 was > 80 µM (inactive).

As for `Cn1c(=O)n(C)c2cc(NC(=O)CSc3nnc(-c4ccccc4O)n3-c3ccccc3)ccc21`, the IC50 is 50.1 µM (inactive).

On to `CCn1c(=O)cc(SCC(=O)N2CCCCC2)c2ccccc21`, for which the IC50 is > 80 µM (inactive).

As for `CC1CCN(CCCNC(=O)COc2cc(=O)n(C)c3ccccc23)CC1`, the IC50 is > 80 µM (inactive).

In the case of `O=C(Oc1cccc(/C=N/Nc2nc(N3CCOCC3)nc(N3CCOCC3)n2)c1)c1ccco1`, the IC50 is > 80 µM (inactive).

For the molecule `CC(C)Oc1ccc(C(=O)Nc2ccc(N(C)C)cc2)cc1`, the IC50 was > 80 µM (inactive).

`Cc1cc(=O)[nH]c2c(C)cc(S(=O)(=O)N3CCCCC3)cc12`: the IC50 is > 80 µM (inactive).

In the case of `Cc1cc(C)c(S(=O)(=O)NCc2ccncc2)c(C)c1`, the IC50 was > 80 µM (inactive).

With `CCC(=O)N1c2ccccc2[C@@H](N(C(C)=O)c2ccccc2)C[C@H]1C`, the IC50 is 57 µM (inactive).

For `CCN(CC)c1ccc2cc(NC(=O)CCC(=O)O)c(=O)oc2c1`, the IC50 is 0.46 µM.

For `CCOc1ccc(-c2nc(CSCC(=O)NCc3ccco3)c(C)o2)cc1`, the IC50 was 64 µM (inactive).

With `CCN(CC(=O)Nc1c(F)cccc1F)C(=O)c1cc([N+](=O)[O-])ccc1N1CCCCC1`, the IC50 is > 80 µM (inactive).

Turning to `CC(C)(C)c1ccc(-c2noc(CCC(=O)Nc3cccnc3)n2)cc1`, the half-maximal inhibitory concentration (IC50) is under 0.16 µM.

Regarding `CC(C)c1[nH]nc2c1C(c1ccco1)C(C#N)=C(N)O2` (centres undefined), the IC50 was 40 µM (inactive).

As for `Cc1ccccc1Nc1nc(Cl)c(C=O)s1`, the IC50 is > 80 µM (inactive).

For `COc1ccc(NC(=O)c2cc3c(Cl)nc4ccccc4c3s2)cc1OC`, the IC50 is 61.9 µM (inactive).

With `Cc1ccccc1-n1c(SCc2c(C)noc2C)nnc1-c1c[nH]c2ccccc12`, the IC50 was > 80 µM (inactive).

Consider `CNC(=O)c1cccn(Cc2ccc(C(F)(F)F)cc2)c1=O`, for which the IC50 is 20.9 µM (inactive).

For the molecule `CCn1c(=O)cc(SCC(=O)N2CCOCC2)c2ccccc21`, the IC50 was > 80 µM (inactive).

For the molecule `COc1cc(OC)cc(-c2cc3nc(C)c(CCC(=O)NCc4ccccc4)c(C)n3n2)c1`, the IC50 was 2.75 µM.

On to `COc1cc(OC)c(/C=N/NC(N)=S)cc1Br`, for which the IC50 is > 80 µM (inactive).

As for `Cc1cnc(NC(=O)Nc2ccc(Cl)cc2)s1`, the IC50 was > 80 µM (inactive).

Turning to `COc1ccccc1/C=C1\SC(=S)N(CCC(=O)Nc2cc(C)on2)C1=O`, the IC50 was 54.7 µM (inactive).

`COc1ccc(-c2noc(CCCC(=O)O)n2)cc1`: the IC50 was 1.4 µM.

For the molecule `CC1CC(C)(C)Nc2ccc(OC(=O)c3ccco3)cc21` (centres undefined), the IC50 is 3.18 µM.

With `Cc1ccc(-c2cn(-c3ccccc3)c3[n+]2CCCS3)cc1`, the IC50 is > 80 µM (inactive).

Turning to `NC(=S)N=Nc1c(O)n(Cc2ccccc2)c2ccccc12`, the IC50 is 23.9 µM (inactive).

For `Cn1nc(-c2ccc(N3CCOCC3)c(NS(=O)(=O)c3ccccc3)c2)c2ccccc2c1=O`, the IC50 is > 80 µM (inactive).

For `COc1ccc(C(=O)Nc2cccc(NC(=O)c3ccc(OC)c(OC)c3)n2)cc1OC`, the IC50 is 9.7 µM.

Consider `O=C(CCCN1C(=O)/C(=C/c2ccccc2Cl)SC1=S)NNC(=O)c1ccc(Cl)cc1`, for which the IC50 was 2.04 µM.

As to `CCOc1ccc(-c2nc(CSCC(=O)NC3CC3)c(C)o2)cc1`, the IC50 was > 80 µM (inactive).

For the molecule `CCOC(=O)C1CCN(c2ncnc3c2cnn3-c2ccc(Cl)cc2)CC1`, the IC50 was 0.39 µM.

Turning to `O=C(NNC(=O)C12CC3CC(CC(C3)C1)C2)c1cccc(O)c1`, the IC50 was > 80 µM (inactive).

On to `O=C(Nc1cccc(S(=O)(=O)Nc2ccc(Cl)cc2)c1)c1ccc(Cl)nc1`, for which the IC50 was 25.7 µM (inactive).

Turning to `O=S(=O)(NCc1ccncc1)c1ccc(Br)s1`, the IC50 was > 80 µM (inactive).

Take `O=C(Nc1cccc(Br)c1)c1ccc2c(c1)SC1=NS(=O)(=O)CCN12`: the IC50 is > 80 µM (inactive).

For `COC(=O)c1cc(NC(=O)Nc2cc(OC)ccc2OC)cc(C(=O)OC)c1`, the IC50 was 63.8 µM (inactive).

`Cc1cc(OCC(=O)NC2CC2)c2c(C)c(C)c(=O)oc2c1`: the IC50 was > 80 µM (inactive).

Consider `Cc1cc(OCC(=O)Nc2ccc(CCO)cc2)c2c(C)c(C)c(=O)oc2c1`, for which the IC50 is > 80 µM (inactive).

Turning to `CCCc1nc2c(C)cc(-c3nc4ccccc4n3C)cc2n1Cc1ccc(-c2ccccc2C(=O)O)cc1`, the IC50 is > 80 µM (inactive).

`Cc1ccc(/C=C2\SC(=S)N(CCCC(=O)NNC(=O)c3ccccc3O)C2=O)cc1`: the IC50 is 0.89 µM.

With `Cc1ccc(C(=O)NNC(=O)CCCN2C(=O)/C(=C/c3ccccc3Cl)SC2=S)cc1`, the IC50 was 4.81 µM.

Regarding `CC(C)CN(C(=O)COC(=O)C12CC3CC(CC(C3)C1)C2)c1c(N)n(Cc2ccccc2)c(=O)[nH]c1=O`, the IC50 was 13.4 µM.

Take `COc1ccc2nc(Sc3c([N+](=O)[O-])nc(C)n3Cc3ccccc3)[nH]c2c1`: the IC50 was 12.2 µM.

`COc1ccc(OCc2cccc(C(=O)NN)c2)cc1`: the half-inhibitory concentration (IC50) is 5.14 µM.

On to `O=C1CCC2S/C(=C/Nc3ccc(C(F)(F)F)cc3)C(=O)N12` (centres undefined), for which the IC50 is 0.18 µM.
